Test results published in patent US20250051347A1, “BIFUNCTIONAL CHIMERIC HETEROCYCLIC COMPOUND AND USE THEREOF AS ANDROGEN RECEPTOR DEGRADER” (Hinova Pharmaceuticals, Inc., priority 2021, published 2025).
Read-outs that look alike come from different tables or passages of the source.

How the values were obtained:
[1] = target: T1, androgen receptor (AR) splicing variant AR-v7 (Homo sapiens, UniProt P10275); assay: Degradation activity on androgen receptor splicing variant AR-v7 in 22RV1 cells (ELISA); type: cell-based; details: AR-v7 degradation in 22RV1 cells, 48 h, class symbols
T1 construct: The degradation activity of compounds on AR-v7 in 22RV1 cells; host or cells: 22RV1 cells
T1 sequence (P10275 1-644 isoform P10275-3): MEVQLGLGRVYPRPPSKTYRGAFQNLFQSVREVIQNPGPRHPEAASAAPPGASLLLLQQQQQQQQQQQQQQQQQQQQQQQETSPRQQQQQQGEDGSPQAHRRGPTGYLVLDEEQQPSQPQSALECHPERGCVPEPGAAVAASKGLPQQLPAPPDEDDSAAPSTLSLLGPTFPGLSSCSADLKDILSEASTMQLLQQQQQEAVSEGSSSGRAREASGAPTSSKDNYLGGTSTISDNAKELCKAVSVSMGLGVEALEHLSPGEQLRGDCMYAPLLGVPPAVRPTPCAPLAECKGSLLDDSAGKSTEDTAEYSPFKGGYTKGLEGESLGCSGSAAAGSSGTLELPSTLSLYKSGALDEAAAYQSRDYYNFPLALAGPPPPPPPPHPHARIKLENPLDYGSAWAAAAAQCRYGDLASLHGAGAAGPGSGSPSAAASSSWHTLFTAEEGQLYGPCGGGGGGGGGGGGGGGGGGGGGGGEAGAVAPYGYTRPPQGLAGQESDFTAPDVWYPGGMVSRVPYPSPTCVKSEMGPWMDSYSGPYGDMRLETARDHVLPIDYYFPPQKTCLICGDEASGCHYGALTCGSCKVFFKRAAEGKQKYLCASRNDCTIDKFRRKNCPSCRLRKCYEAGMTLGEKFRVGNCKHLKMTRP

[2] = system: 22RV1 cells
[3] = Pharmacokinetics in mice (plasma exposure after oral administration); type: in vivo; details: ICR mice, oral (i.g.) 3 mg/kg; for AUC(0-inf): mouse, read-out: After oral administration of 3 mg/kg, mouse plasma exposure AUCinf
[4] = Homo sapiens, 22Rv1, 144 h, read-out: 22RV1 IC50 (nM), 22RV1 cells, 6 days culture, CCK-8, OD 450 nm

| DC50 [1] [nM] | IC50 [2, 4] [nM] | AUC(0-inf) [3] [ng·h/mL] | SMILES | IC50 ([2]; read-out: 22RV1 IC50, 22RV1 cells, 6 days culture, CCK-8, OD 450 nm) [nM] | After oral administration of 3 mg/kg, mouse plasma exposure AUCinf (μg*h/mL) [3] |
| --- | --- | --- | --- | --- | --- |
| < 10 | 8 | 100 to 1000 | CN1CCC(Nc2nccc(COc3ccc(C(C)(C)c4ccc(O[C@H]5C[C@H](Nc6ccc7c(c6)C(=O)N(C6CCC(=O)NC6=O)C7=O)C5)cc4)cc3)n2)CC1 (stereo partly drawn) [Example 232] |  |  |
| < 10 | 15 | 5000 to 30000 | CCC(CC)(c1ccc(Oc2cnc(-c3noc(C)n3)nc2)cc1)c1ccc(O[C@H]2C[C@@H](Nc3ccc4c(c3)C(=O)N(C3CCC(=O)NC3=O)C4=O)C2)cc1 (stereo partly drawn) [Example 553] |  |  |
| < 10 | 4 | 100 to 1000 | CC(C)(c1ccc(Oc2ccc(C#N)nn2)cc1)c1ccc(O[C@H]2C[C@H](Nc3ccc4c(c3)C(=O)N(C3CCC(=O)NC3=O)C4=O)C2)cc1 (stereo partly drawn) [Example 98, 6-(4-(2-(4-((1r,3r)-3-((2-(2,6-dioxopiperidin-3-yl)-1,3-dioxoisoindolin-5-yl)amino)cyclobutyloxy)phenyl)propan-2-yl)phenoxy) pyridazine-3-carbonitrile] |  |  |
| 11 to 100 | 20 | 100 to 1000 | CNC(=O)c1nccc(COc2ccc(C(C)(C)c3ccc(OCCCNc4ccc5c(c4)C(=O)N(C4CCC(=O)NC4=O)C5=O)cc3)cc2)n1 (stereo not drawn) [Example 183, 4-((4-(2-(4-(3-((2-(2,6-dioxopiperidin-3-yl)-1,3-dioxoisoindolin-5-yl)amino)propoxy)phenyl)propan-2-yl)phenoxy)methyl)-N-methylpyrimidin-2-carbonylamine] |  |  |
| < 10 | 4 | 5000 to 30000 | Cc1nc(-c2nccc(COc3ccc(C(C)(C)c4ccc(O[C@H]5C[C@H](Nc6ccc7c(c6)C(=O)N(C6CCC(=O)NC6=O)C7=O)C5)cc4)cc3)n2)no1 (stereo partly drawn) [Example 279] |  |  |
| < 10 | 6 | 5000 to 30000 | CC(=O)c1ccc(Oc2ccc(C(C)(C)c3ccc(O[C@H]4C[C@H](Nc5ccc6c(c5)C(=O)N(C5CCC(=O)NC5=O)C6=O)C4)cc3)cc2)nn1 (stereo partly drawn) [Example 126, 5-(((trans)-3-(4-(2-(4-((6-acetylpyridazine-3-yl)oxy)phenyl)propan-2-yl)phenoxy)cyclobutyl)amino)-2-(2,6-dioxopiperidin-3-yl)isoindolin-1,3-dione] |  |  |
| < 10 | 13 | 5000 to 30000 | Cc1nc(-c2cc(Oc3ccc(C(C)(C)c4ccc(O[C@H]5C[C@H](Nc6ccc7c(c6)C(=O)N(C6CCC(=O)NC6=O)C7=O)C5)cc4)cc3)ncn2)no1 (stereo partly drawn) [Example 588] |  |  |
| < 10 | 9 | 5000 to 30000 | C=CC(c1ccc(Oc2ccc(-n3nccn3)nn2)cc1)c1ccc(O[C@H]2C[C@H](Nc3ccc4c(c3)C(=O)N(C3CCC(=O)NC3=O)C4=O)C2)cc1 (stereo partly drawn) [Example 371, 5-(((1r,3r)-3-(4-(1-(4-((6-(2H-1,2,3-triazole-2-yl)pyridazine-3-yl)oxy)phenyl)allyl)phenoxy)cyclobutyl)amino)-2-(2,6-dioxopiperidin-3-yl)isoindolin-1,3-dione] |  |  |
| < 10 | 12 | 1000 to 5000 | COc1ncc2c(n1)CN(c1ccc(C(C)(C)c3ccc(OC4CC(Nc5ccc6c(c5)C(=O)N(C5CCC(=O)NC5=O)C6=O)C4)cc3)cc1)CC2 (stereo not drawn) [Example 188] |  |  |
| < 10 | 6 | 100 to 1000 | CNC(=O)c1nccc(COc2ccc(C(C)(C)c3ccc(O[C@H]4C[C@@H](Nc5ccc6c(c5)C(=O)N(C5CCC(=O)NC5=O)C6=O)C4)cc3)cc2)n1 (stereo partly drawn) [Example 187, 4-((4-(2-(4-((1s,3s)-3-((2-(2,6-dioxopiperidin-3-yl)-1,3-dioxoisoindolin-5-yl)amino)cyclobutyloxy)phenyl)propan-2-yl)phenoxy)methyl)-N-methylpyrimidin-2-carbonylamine] |  |  |
| < 10 | 6 | 5000 to 30000 | Cc1nc(-c2ccnc(Oc3ccc(C(C)(C)c4ccc(O[C@H]5C[C@H](Nc6ccc7c(c6)C(=O)N(C6CCC(=O)NC6=O)C7=O)C5)cc4)cc3)n2)no1 (stereo partly drawn) [Example 166] |  |  |
| < 10 | 4 | 100 to 1000 | CC(C)(c1ccc(OCc2ccnc(-c3nnco3)n2)cc1)c1ccc(O[C@H]2C[C@@H](Nc3ccc4c(c3)C(=O)N(C3CCC(=O)NC3=O)C4=O)C2)cc1 (stereo partly drawn) [Example 464, 5-(((1s,3s)-3-(4-(2-(4-((2-(1,3,4-oxadiazol-2-yl)pyrimidin-4-yl)methoxy)phenyl)propan-2-yl)phenoxy)cyclobutyl)amino)-2-(2,6-dioxopiperidin-3-yl)isoindolin-1,3-dione] |  |  |

| SMILES | DC50 [1] [nM] | IC50 [2, 4] [nM] | AUC(0-inf) [3] [ng·h/mL] | IC50 ([2]; read-out: 22RV1 IC50, 22RV1 cells, 6 days culture, CCK-8, OD 450 nm) [nM] | After oral administration of 3 mg/kg, mouse plasma exposure AUCinf (μg*h/mL) [3] |
| --- | --- | --- | --- | --- | --- |
| CC(C)(c1ccc(O[C@H]2C[C@H](Nc3ccc4c(c3)C(=O)N(C3CCC(=O)NC3=O)C4=O)C2)cc1)c1ccc(N2CCc3nc(N4CC5(COC5)C4)ncc3C2)cc1 (stereo partly drawn) [Example 195] | < 10 | 15 | 1000 to 5000 |  |  |
| CC(C)(c1ccc(O[C@H]2C[C@@H](Nc3ccc4c(c3)C(=O)N(C3CCC(=O)NC3=O)C4=O)C2)cc1)c1ccc(N2CCc3cnc(N4CC5(COC5)C4)nc3C2)cc1 (stereo partly drawn) [Example 190] | < 10 | 12 | 5000 to 30000 |  |  |
| CC(C)(c1ccc(O[C@H]2C[C@H](Nc3ccc4c(c3)C(=O)N(C3CCC(=O)NC3=O)C4=O)C2)cc1)c1ccc(N2CCc3cnc(N4CC5(COC5)C4)nc3C2)cc1 (stereo partly drawn) [Example 189] | < 10 | 9 | 5000 to 30000 |  |  |
| CC(C)(c1ccc(OCc2ccnc(N3CC4(COC4)C3)n2)cc1)c1ccc(OC[C@@H]2CCN2c2ccc3c(c2)C(=O)N(C2CCC(=O)NC2=O)C3=O)cc1 (stereo partly drawn) [Example 312, 5-((S)-2-((4-(2-(4-((2-(2-oxa-6-azaspiro[3.3]heptan-6-yl)pyrimidin-4-yl)methoxy)phenyl)propan-2-yl)phenoxy)methyl)azetidin-1-yl)-2-(2,6-dioxopiperidin-3-yl)isoindolin-1,3-dione] | < 10 | 22 | 100 to 1000 |  |  |
| Cc1nc(-c2ccc(Oc3ccc(C(C)(C)c4ccc(O[C@H]5C[C@H](Nc6ccc7c(c6)C(=O)N(C6CCC(=O)NC6=O)C7=O)C5)cc4)cc3)cn2)no1 (stereo partly drawn) [Example 209] | < 10 |  |  | 5 | A (30-5 μg*h/mL) |
| CC(C)(c1ccc(OCc2ccnc(N3CC4(COC4)C3)n2)cc1)c1ccc(N2CC(Nc3ccc4c(c3)C(=O)N(C3CCC(=O)NC3=O)C4=O)C2)cc1 (stereo not drawn) [Example 154] | < 10 | 7 | 1000 to 5000 |  |  |
| O=C1CCC(N2C(=O)c3ccc(N[C@H]4C[C@@H](Oc5ccc(C6(c7ccc(OCc8ccnc(N9CC%10(COC%10)C9)n8)cc7)CCCC6)cc5)C4)cc3C2=O)C(=O)N1 (stereo partly drawn) [Example 361, 5-(((1s,3s)-3-(4-(1-(4-((2-(2-oxa-6-azaspiro[3.3]heptane-6-yl)pyrimidin-4-yl)methoxy)phenyl)cyclopentyl)phenoxy)cyclobutyl)amino)-2-(2,6-dioxopiperidin-3-yl)isoindolin-1,3-dione] | < 10 | 8 | 1000 to 5000 |  |  |
